Test results reported in US20250017889A1, “INHIBITORS OF P1B-TYPE ATPASES” (THE CURATORS OF THE UNIVERSITY OF MISSOURI, priority 2021, published 2025).

Tests used:
[1] = molecular target: T1, ATP7A (Homo sapiens, UniProt Q04656); assay: Microscale thermophoresis (MST) binding to GFP-ATP7A in HEK293 cell lysates; details: for Kd: MST analysis, read-out: ATP7A Binding Affinity KD
T1 construct: expressed in transfected cells; host or cells: HEK293 (detergent-free lysate)
T1 sequence (Q04656 1-1500): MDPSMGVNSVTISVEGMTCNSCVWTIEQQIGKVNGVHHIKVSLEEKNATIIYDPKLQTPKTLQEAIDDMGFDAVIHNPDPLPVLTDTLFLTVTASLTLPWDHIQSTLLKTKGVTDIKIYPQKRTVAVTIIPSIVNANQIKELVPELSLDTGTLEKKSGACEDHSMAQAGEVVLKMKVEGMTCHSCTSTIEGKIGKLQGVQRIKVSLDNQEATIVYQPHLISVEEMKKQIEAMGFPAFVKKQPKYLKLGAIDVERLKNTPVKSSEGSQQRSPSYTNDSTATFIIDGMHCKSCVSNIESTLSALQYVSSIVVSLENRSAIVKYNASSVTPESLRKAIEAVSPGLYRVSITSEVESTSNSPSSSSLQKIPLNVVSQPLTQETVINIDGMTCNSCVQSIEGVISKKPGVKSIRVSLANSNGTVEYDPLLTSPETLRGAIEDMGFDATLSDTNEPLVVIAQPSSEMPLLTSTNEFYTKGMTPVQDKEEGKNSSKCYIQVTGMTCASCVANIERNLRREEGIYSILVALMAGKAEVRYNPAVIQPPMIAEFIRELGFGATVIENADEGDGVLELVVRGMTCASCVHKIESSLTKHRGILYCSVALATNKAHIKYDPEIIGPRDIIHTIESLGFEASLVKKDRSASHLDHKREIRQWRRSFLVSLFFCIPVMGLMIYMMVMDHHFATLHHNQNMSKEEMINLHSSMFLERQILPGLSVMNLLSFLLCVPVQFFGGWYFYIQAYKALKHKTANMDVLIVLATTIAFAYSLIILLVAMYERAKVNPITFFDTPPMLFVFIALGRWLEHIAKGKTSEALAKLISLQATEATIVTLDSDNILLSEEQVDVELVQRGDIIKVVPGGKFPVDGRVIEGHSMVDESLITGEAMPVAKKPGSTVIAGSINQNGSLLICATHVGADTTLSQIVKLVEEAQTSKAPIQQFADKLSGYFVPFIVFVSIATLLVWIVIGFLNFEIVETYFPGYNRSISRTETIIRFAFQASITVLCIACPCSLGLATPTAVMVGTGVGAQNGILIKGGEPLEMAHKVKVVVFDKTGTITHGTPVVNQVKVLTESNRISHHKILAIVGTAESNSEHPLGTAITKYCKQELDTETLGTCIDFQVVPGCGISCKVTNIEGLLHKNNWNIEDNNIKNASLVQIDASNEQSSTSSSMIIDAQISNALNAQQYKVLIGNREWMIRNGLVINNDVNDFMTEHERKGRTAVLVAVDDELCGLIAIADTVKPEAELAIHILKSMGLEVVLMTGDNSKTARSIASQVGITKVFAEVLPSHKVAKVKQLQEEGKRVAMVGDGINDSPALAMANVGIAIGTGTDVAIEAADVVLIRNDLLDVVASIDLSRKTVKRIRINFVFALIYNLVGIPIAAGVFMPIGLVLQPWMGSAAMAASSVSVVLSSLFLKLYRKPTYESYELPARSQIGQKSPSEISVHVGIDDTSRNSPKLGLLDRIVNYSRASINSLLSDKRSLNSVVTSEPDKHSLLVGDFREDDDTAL

[2] = tested on: tyrosinase activity in B16 melanoma cells; assay: Tyrosinase activity in wild type B16 melanoma cells (L-DOPA to DOPAchrome), proxy for ATP7A inhibition; assay type: cell-based; details: for IC50: Mus musculus, B16 cells
From the text: Tyrosinase is a cuproenzyme involved in melanogenesis that receives copper via ATP7A in the secretory pathway. […] Thus, reductions in tyrosinase activity in wild type B16 cells can be used as a proxy for inhibition of ATP7A. […]

[3] = Cytotoxicity in B16 cells by MTT and crystal violet assays; assay type: cell-based; details: mouse, B16 melanoma cells; B16 cells, MTT and crystal violet assays; read-out: half-maximal cytotoxic concentration (CC50)
From the text: This is consistent with lower affinity of MKV1 for ATP7A (FIG. 6E).

[4] = molecular target: T2, ATP7B (Homo sapiens, UniProt P35670); assay: Microscale thermophoresis (MST) binding to GFP-ATP7B in HEK293 cell lysates; details: MST
T2 construct: expressed in transfected cells; host or cells: HEK293 (detergent-free lysate)
T2 sequence (P35670 1-1465): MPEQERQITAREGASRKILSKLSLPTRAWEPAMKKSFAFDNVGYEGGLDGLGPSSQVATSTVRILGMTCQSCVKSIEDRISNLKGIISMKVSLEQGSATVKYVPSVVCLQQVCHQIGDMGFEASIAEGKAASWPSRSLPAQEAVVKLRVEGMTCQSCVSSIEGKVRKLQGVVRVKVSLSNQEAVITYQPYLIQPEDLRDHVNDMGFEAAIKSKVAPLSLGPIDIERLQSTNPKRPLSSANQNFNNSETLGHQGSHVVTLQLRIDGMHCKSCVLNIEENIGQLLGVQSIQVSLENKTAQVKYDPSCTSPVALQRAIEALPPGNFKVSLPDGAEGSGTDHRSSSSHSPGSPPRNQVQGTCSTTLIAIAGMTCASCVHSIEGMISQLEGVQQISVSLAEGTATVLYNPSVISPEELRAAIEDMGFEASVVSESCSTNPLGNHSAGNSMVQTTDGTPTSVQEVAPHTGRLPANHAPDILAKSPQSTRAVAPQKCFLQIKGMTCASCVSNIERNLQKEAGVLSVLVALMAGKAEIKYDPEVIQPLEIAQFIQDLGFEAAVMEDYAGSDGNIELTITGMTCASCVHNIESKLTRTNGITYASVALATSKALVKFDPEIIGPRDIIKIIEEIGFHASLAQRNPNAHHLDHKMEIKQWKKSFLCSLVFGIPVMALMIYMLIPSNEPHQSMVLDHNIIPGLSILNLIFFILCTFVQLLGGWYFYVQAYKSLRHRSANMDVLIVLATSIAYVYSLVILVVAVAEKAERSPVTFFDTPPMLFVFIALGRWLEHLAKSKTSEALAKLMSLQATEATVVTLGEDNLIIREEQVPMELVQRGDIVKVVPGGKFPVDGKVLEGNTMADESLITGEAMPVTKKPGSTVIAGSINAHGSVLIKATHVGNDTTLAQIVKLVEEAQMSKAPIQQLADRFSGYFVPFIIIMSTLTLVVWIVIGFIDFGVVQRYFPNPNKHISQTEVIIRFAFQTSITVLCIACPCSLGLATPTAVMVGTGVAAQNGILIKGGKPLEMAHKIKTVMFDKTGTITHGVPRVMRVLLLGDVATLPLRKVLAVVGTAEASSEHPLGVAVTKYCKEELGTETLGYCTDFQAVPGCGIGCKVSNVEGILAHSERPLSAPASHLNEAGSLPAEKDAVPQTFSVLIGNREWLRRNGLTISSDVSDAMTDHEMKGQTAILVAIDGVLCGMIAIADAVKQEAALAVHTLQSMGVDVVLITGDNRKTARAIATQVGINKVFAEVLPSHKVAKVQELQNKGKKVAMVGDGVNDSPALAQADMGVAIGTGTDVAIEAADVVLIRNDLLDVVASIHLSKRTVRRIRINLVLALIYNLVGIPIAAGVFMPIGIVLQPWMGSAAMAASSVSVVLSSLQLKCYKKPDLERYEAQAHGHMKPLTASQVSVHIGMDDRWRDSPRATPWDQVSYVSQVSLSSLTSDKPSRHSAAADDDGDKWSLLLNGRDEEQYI
From the text: (§1) Coordinating residues D935 and E798 are predicted to bind copper during transport.

[5] = tested on: GFP alone; assay: Microscale thermophoresis (MST), GFP alone as negative control; assay type: binding
From the text: as §1

[6] = tested on: LOX activity; assay: LOX activity secreted into conditioned media of cancer cells; assay type: cell-based; details: 4T1 breast cancer cells, compared with MKV3
[7] = tested on: ΔcopA/ΔcopB strain of S. aureus; assay: Growth of copper-sensitive ΔcopA/ΔcopB mutant strain of S. aureus; assay type: cell-based, Staphylococcus aureus; details: copper alone 50 μM
Description: Methicillin-resistant Staphylococcus aureus (MRSA) is a human pathogen that expresses two Cu-transporting P1B-type ATPases, CopA and CopB, which are known to enhance the virulence of this bacterium. 19A illustrates CopA and CopB copper exporters at the plasma membrane of S. aureus. […] The growth of the ΔcopA/ΔcopB strain was inhibited by approximately 50% when copper alone (50 μM) was added to the culture medium.
Wild type MRSA expresses two copper-exporting P1B-type ATPases, CopA and CopB that are required for copper tolerance (FIG. 19A). […] The same experiment was performed using MRSA in which both CopA and CopB genes were deleted (ΔcopA/ΔcopB). Consistent with the known role of CopA and CopB in copper tolerance, the growth of the ΔcopA/ΔcopB strain was inhibited by approximately 50% when copper alone (50 μM) was added to the culture medium (FIG. 19C).

Molecule	Kd [1]	IC50 [2]	other results
O=C(CC(=S)Nc1ccccc1Cl)Nc1ccccc1 [MKV1A]	0.363 ± 0.024 µM	21.559 ± 0.005 µM	–
N#CC(C(=O)Nc1ccccc1)C(=S)Nc1ccccc1 (stereo not drawn) [MKV1B]	0.354 ± 0.021 µM	21.87 ± 0.129 µM	–
O=C(CC(=S)Nc1ccccc1)Nc1cccc(C(F)(F)F)c1 [MKV1C]	0.43 ± 0.016 µM	16.18 ± 0.023 µM	–
O=C(CC(=S)Nc1ccccc1Cl)Nc1cccc(C(F)(F)F)c1 [MKV1D]	0.708 ± 0.042 µM	12.222 ± 0.005 µM	–
N#CC(C(=O)Nc1ccccc1)C(=S)Nc1ccccc1Cl (stereo not drawn) [MKV1E]	1.06 ± 0.054 µM	11.7 ± 0.001 µM	–
N#CC(C(=O)Nc1cccc(C(F)(F)F)c1)C(=S)Nc1ccccc1 (stereo not drawn) [MKV1F]	1 ± 0.059 µM	8.719 ± 0.014 µM	–
O=C(CC(=S)Nc1ccccc1)Nc1ccccc1 [MKV1]	1.83 ± 0.151 µM	29.98 ± 0.029 µM	CC50 [3]: ~270 µM; fold difference in affinity for ATP7B between MKV3 (higher) and MKV1 (lower) [4]: approximately 10 fold; fold difference in affinity for ATP7A between MKV3 (higher) and MKV1 (lower) ([1]; MST): approximately 10 fold; in situ tyrosinase activity ([2]; 50 μM, 24 h, wild type B16 melanoma cells): loss of tyrosinase activity; binding to GFP alone [5]: not to GFP alone; LOX activity [6]: inhibited LOX activity but only at higher concentrations than for MKV3
copper	–	–	inhibition of growth of the ΔcopA/ΔcopB strain [7]: approximately 50%
